Data as given in patent publication US5936101A, “Process for the preparation of 1,2-dioxetane compounds and novel sulfur-substituted 1,2-dioxetane compounds as intermediates” (Lumigen, Inc., priority 1997, dated 1999).

What was measured:
[1] = Fluoride (TBAF in DMSO) induced chemiluminescence; format: physicochemical
[2] = Thermal stability / stability on silica of dioxetanes; format: physicochemical; conditions: TLC on silica versus NMR
Excerpt: (c) Synthesis of 4-ethylthio-4-(3-pivaloyloxyphenyl)spiro-[1,2-dioxetane-3,2'-tricyclo[3.3.1.1^3,7 ]decane] (2).

[3] = Base-induced decay of chemiluminescence of hydroxyphenyl alkylthio dioxetane in 221 buffer pH 9.6 with surfactant enhancers; format: physicochemical; conditions: for t1/2 (decay of chemiluminescence): 0.2 M 221 buffer, pH 9.6, 0.88 mM Mg+2, ambient temperature
Protocol: The first order decay of chemiluminescence of dioxetane 3 in 0.2 M 221 buffer, pH 9.6 containing 0.88 mM Mg^+2 and the surfactant enhancers shown below was measured at ambient temperature. Surfactant A is CTAB, B is poly(vinylbenzyltributylphosphonium chloride), C is poly(vinylbenzyltributylphosphonium chloride)-co-poly(vinylbenzyltrioctylphosphonium chloride), D is 1-trioctylphoniummethyl-4-tributylphosphonium-methylbenzene dichloride.

[4] = Base-induced decay of chemiluminescence of hydroxyphenyl alkoxy or aryloxy dioxetanes in 221 buffer pH 9.6; format: physicochemical; conditions: 0.2 M 221 buffer, 0.88 mM Mg+2, 1.0 mg/mL 1-trioctylphosphoniummethyl-4-tributylphosphoniummethylbenzene dichloride
Protocol: The first order decay of chemiluminescence of dioxetanes 14-19 in 0.2 M 2-methyl-2-amino-1-propanol (221) buffer, pH 9.6 containing 0.88 mM Mg^+2 and 1.0 mg/mL of 1-trioctylphosphoniummethyl-4-tributylphosphoniummethylbenzene dichloride was measured at 37° C. in a Turner Designs (Sunnyvale, Calif.) model TD-20e luminometer. The half-lives of decay of chemiluminescence (t1/2) of hydroxy-dioxetanes correlate with the times required to reach the maximum light intensity (Imax) in the alkaline phosphatase-triggered decomposition of the corresponding phosphate-dioxetanes under the same conditions. […] It is expected that, for example, the phosphate derivatives of dioxetanes 14-19 as well as others which can be produced by the process described herein will be useful in alkaline phosphatase-linkedassays known in the art.

[5] = Chemiluminescence on heating

| Compound | chemiluminescence colour ([1]; 0.1 M TBAF in DMSO) | t1/2 37° C. (half-life of decay of chemiluminescence) [4] [min] | further results |
| --- | --- | --- | --- |
| CCSC1(c2cccc(O)c2)OOC12C1CC3CC(C1)CC2C3 (centres unmarked) [Dioxetane 1, 4-Ethylthio-4-(3-hydroxyphenyl)spiro[1,2-dioxetane-3,2'-tricyclo[3.3.1.1^3,7]decane]] | yellow emission |  | chemiluminescence colour ([1]; excess TBAF in DMSO): yellow chemiluminescence |
| CCSC1(c2cccc(OC(=O)C(C)(C)C)c2)OOC12C1CC3CC(C1)CC2C3 (centres unmarked) [Dioxetane 2, 4-Ethylthio-4-(3-pivaloyloxyphenyl)spiro[1,2-dioxetane-3,2'-tricyclo-[3.3.1.1^3,7]decane]] |  |  | stability on silica [2]: less stable on silica; chemiluminescence colour ([1]; excess TBAF in DMSO): yellow chemiluminescence |
| Oc1cccc(C2(Sc3ccc(F)cc3)OOC23C2CC4CC(C2)CC3C4)c1 (centres unmarked) [Dioxetane 3, 4-(p-Fluorophenylthio)-4-(3-hydroxyphenyl)spiro[1,2-dioxetane-3,2'-tricyclo-[3.3.1.1^3,7]decane]] |  |  | t1/2 (decay of chemiluminescence) ([3]; Surfactant A (CTAB) 0.41 g/L): 11.2 min; t1/2 (decay of chemiluminescence) ([3]; Surfactant B (poly(vinylbenzyltributylphosphonium chloride)) 0.5 g/L): 4.2 min; t1/2 (decay of chemiluminescence) ([3]; Surfactant C (poly(vinylbenzyltributylphosphonium chloride)-co-poly(vinylbenzyltrioctylphosphonium chloride)) 0.5 g/L): 2.9 min; t1/2 (decay of chemiluminescence) ([3]; Surfactant D (1-trioctylphoniummethyl-4-tributylphosphonium-methylbenzene dichloride) 1.0 g/L): 2.0 min; kinetics for light emission compared with dioxetane 6 or alkoxy-substituted analogues ([3]; alkaline amine buffer containing metal salts): comparable to dioxetane 6 |
| CC(C)(C)C(=O)Oc1cccc(C2(Sc3ccc(F)cc3)OOC23C2CC4CC(C2)CC3C4)c1 (centres unmarked) [Dioxetane 4, 4-(p-Fluorophenylthio)-4-(3-pivaloyloxyphenyl)spiro[1,2-dioxetane-3,2'tricyclo-[3.3.1.1^3,7]decane]] | yellow emission |  | chemiluminescence colour ([1]; excess TBAF in DMSO): red chemiluminescence |
| Oc1cccc(C2(SCC(F)(F)F)OOC23C2CC4CC(C2)CC3C4)c1 (centres unmarked) [Dioxetane 5, 4-(2,2,2-trifluoroethylthio)-4-(3-hydroxyphenyl)spiro[1,2-dioxetane-3,2'-tricyclo[3.3.1.1^3,7]decane]] |  |  | chemiluminescence colour ([1]; excess TBAF in DMSO): orange-yellow light |
| COC1(c2cccc(O)c2)OOC12C1CC3CC(C1)CC2C3 (centres unmarked) [Dioxetane 6, 4-(3-Hydroxyphenyl)-4-methoxyspiro[1,2-dioxetane-3,2'-tricyclo[3.3.1.1^3,7]decane]] | blue emission |  |  |
| CC(C)OC1(c2cccc(O)c2)OOC12C1CC3CC(C1)CC2C3 (centres unmarked) [Dioxetane 7, 4-Isopropoxy-4-(3-hydroxyphenyl)spiro[1,2-dioxetane-3,2'-tricyclo[3.3.1.1^3,7]decane]] | blue emission |  |  |
| C=CCOC1(c2cccc(O)c2)OOC12C1CC3CC(C1)CC2C3 (centres unmarked) [Dioxetane 8, 4-(3-Hydroxyphenyl)-4-(2-propenyloxy) spiro[1,2-dioxetane-3,2'-tricyclo[3.3.1.1^3,7]decane]] | blue emission |  |  |
| N#CCCOC1(c2cccc(O)c2)OOC12C1CC3CC(C1)CC2C3 (centres unmarked) [Dioxetane 9, 4-(2-Cyanoethoxy)-4-(3-hydroxyphenyl)spiro[1,2-dioxetane-3,2'-tricyclo-[3.3.1.1^3,7]decane]] | blue emission |  |  |
| OCCOC1(c2cccc(O)c2)OOC12C1CC3CC(C1)CC2C3 (centres unmarked) [Dioxetane 10, 4-(2-Hydroxyethoxy)-4-(3-hydroxyphenyl)spiro[1,2-dioxetane-3,2'-tricyclo-[3.3.1.1^3,7]decane]] | blue emission |  |  |
| Oc1cccc(C2(Oc3ccccc3)OOC23C2CC4CC(C2)CC3C4)c1 (centres unmarked) [Dioxetane 11, 4-(3-Hydroxyphenyl)-4-phenoxyspiro[1,2-dioxetane-3,2'-tricyclo[3.3.1.1^3,7]decane]] | blue emission |  |  |
| Oc1cccc(C2(OC(C(F)(F)F)C(F)(F)F)OOC23C2CC4CC(C2)CC3C4)c1 (centres unmarked) [Dioxetane 14, 4-(Hexafluoroisopropoxy)-4-(3-hydroxyphenyl)spiro[1,2-dioxetane-3,2'-tricyclo-[3.3.1.1^3,7]decane]] |  | 0.16 |  |
| Oc1cccc(C2(OCC(Cl)(Cl)Cl)OOC23C2CC4CC(C2)CC3C4)c1 (centres unmarked) [Dioxetane 15, 4-(3-Hydroxyphenyl)-4-(2 2,2-trichloroethoxy)spiro[1,2-dioxetane-3,2'-tricyclo-[3.3.1.1^3,7]decane]] |  | 3.7 |  |
| Oc1cccc(C2(OCC(Cl)Cl)OOC23C2CC4CC(C2)CC3C4)c1 (centres unmarked) [Dioxetane 16, 4-(2,2-Dichloroethoxy)-4-(3-hydroxyphenyl)spiro[1,2-dioxetane-3,2'-tricyclo-[3.3.1.1^3,7]decane]] |  | 4.1 |  |
| Oc1cccc(C2(OCC(F)(F)C(F)(F)F)OOC23C2CC4CC(C2)CC3C4)c1 (centres unmarked) [Dioxetane 17, 4-(3-Hydroxyphenyl)-4-(2,2,3,3,3-pentafluoropropoxy)spiro[1,2-dioxetane-3,2'-tricyclo[3.3.1.1^3,7]decane]] |  | 3.4 |  |
| Oc1cccc(C2(OCC(F)(F)C(F)(F)C(F)(F)F)OOC23C2CC4CC(C2)CC3C4)c1 (centres unmarked) [Dioxetane 18, 4-(2,2,3,3,4,4,4-Heptafluorobutoxy)-4-(3-hydroxyphenyl)spiro[1,2-dioxetane-3,2'-tricyclo[3.3.1.1^3,7]decane]] |  | 4.9 |  |
| Oc1cccc(C2(Oc3c(F)cccc3F)OOC23C2CC4CC(C2)CC3C4)c1 (centres unmarked) [Dioxetane 19, 4-(2',6'-Difluorophenoxy)-4-(3-hydroxyphenyl)spiro[1,2-dioxetane-3,2'-tricyclo[3.3.1.1^3,7]decane]] |  | 1.76 |  |
| COC1(c2cccc(OC(=O)C(C)(C)C)c2)OOC12C1CC3CC(C1)CC2C3 (centres unmarked) [Dioxetane 20, 4-Methoxy-4-(3-pivaloyloxyphenyl)spiro[1,2-dioxetane-3,2'-tricyclo-[3.3.1.1^3,7]decane]] | blue emission |  |  |
| COC1(c2cccc(O[Si](C)(C)C(C)(C)C)c2)OOC12C1CC3CC(C1)CC2C3 (centres unmarked) [Dioxetane 21] | blue chemiluminescence |  | chemiluminescence on heating [5]: blue chemiluminescence |
| COC1(c2cccc(O[Si](c3ccccc3)(c3ccccc3)C(C)(C)C)c2)OOC12C1CC3CC(C1)CC2C3 (centres unmarked) [Dioxetane 22] | blue chemiluminescence |  | chemiluminescence on heating [5]: blue chemiluminescence |
